# Results: US5843908A, “Pradimicins l and fl, and derivatives thereof” (Bristol-Myers Squibb Company, priority 1990, dated 1998)
# Experiments:
# [1] = test system: Aspergillus fumigatus IAM 2034; assay: In vitro antifungal activity, serial agar dilution, yeast morphology agar (Tables 4b, 4c); type: cell-based; conditions: IAM2034, 60 h, 1/15 M phosphate buffer, 10^6 cells/ml, 40 hours at 28° C.
# Description: (§1) Representative compounds of the present invention were tested in vitro against various fungi by serial agar dilution method in either Sabouraud dextrose agar or yeast morphology agar containing 1/15 M phosphate buffer. Thus, approximately 0.003 ml of fungal suspension containing 10^6 -10^7 cells/ml was applied to the surface of agar plates containing the test antibiotic. The minimum inhibitory concentration (MIC) values for the test compounds were recorded after the cultures had been incubated for 40-60 hours at 28° C.
# (§2) ^1. Determined after incubation for 40 hours at 28° C.
# (§3) (Trichophyton mentagrophytes: 60 hours, 28° C.).
# (§4) ^2. Inoculum size 10^6 cells/ml (Trichophyton mentagrophytes:
# (§5) 10^7 cells/ml) in yeast morphology agar containing 1/15 M phosphate
# (§6) (Trichophyton mentaprophytes: 60 hours, 28° C.).
# [2] = test system: Candida albicans 83-2-14 (Juntendo); assay: as above; type: cell-based; conditions: 60 h, 1/15 M phosphate buffer, 10^6 cells/ml, 40 hours at 28° C.
# Description: as §1, §2, §3, §4, §5, §6
# Candida albicans A9540 = assay: as above; type: cell-based; conditions: 60 h, 1/15 M phosphate buffer, 10^6 cells/ml, 40 hours at 28° C.
# Description: as §1, §2, §3, §4, §5, §6
# [3] = test system: Candida albicans ATCC 32354 (B311); assay: as above; type: cell-based; conditions: ATCC32354, 60 h, 1/15 M phosphate buffer, 10^6 cells/ml, 40 hours at 28° C.
# Description: as §1, §2, §3, §4, §5, §6
# [4] = test system: Candida tropicalis 85-8 (Kitasato); assay: as above; type: cell-based; conditions: 60 h, 1/15 M phosphate buffer, 10^6 cells/ml, 40 hours at 28° C.
# Description: as §1, §2, §3, §4, §5, §6
# [5] = test system: Candida tropicalis IAM 10241; assay: as above; type: cell-based; conditions: IAM10241, 60 h, Candida tropicalis IAM 10241 ("IAN 10241" in Table 4b), 1/15 M phosphate buffer, 10^6 cells/ml, 40 hours at 28° C.
# Description: as §1, §2, §3, §4, §5, §6
# [6] = test system: Cryptococcus neoformans D49; assay: as above; type: cell-based; conditions: 60 h, 1/15 M phosphate buffer, 10^6 cells/ml, 40 hours at 28° C.
# Description: as §1, §2, §3, §4, §5, §6
# [7] = test system: Cryptococcus neoformans IAM 4514; assay: as above; type: cell-based; conditions: IAM4514, 60 h, 1/15 M phosphate buffer, 10^6 cells/ml, 40 hours at 28° C.
# Description: as §1, §2, §3, §4, §5, §6
# [8] = test system: Saccharomyces cerevisiae ATCC 9763; assay: as above; type: cell-based; conditions: ATCC9763, 60 h, 1/15 M phosphate buffer, 10^6 cells/ml, 40 hours at 28° C.
# Description: as §1, §2, §3, §4, §5, §6
# [9] = test system: Trichophyton mentagrophytes #4329; assay: as above; type: cell-based; conditions: 1/15 M phosphate buffer, 10^7 cells/ml, 60 hours, 28° C.
# Description: as §1, §2, §3, §4, §5, §6
# A. fumigatus IAM2034 = assay: In vitro antifungal activity, serial agar dilution, Sabouraud dextrose agar (Table 4a); type: cell-based; conditions: Aspergillus fumigatus, 10^6 CFU/ml, 40-60 hours at 28° C.
# Description: as §1
# (§7) Medium: Sabouraud dextrose agar
# [10] = test system: Aspergillus fumigatus IAM2530; assay: as above; type: cell-based; conditions: 10^6 CFU/ml, 40-60 hours at 28° C.
# Description: as §1, §7
# [11] = test system: Blastomyces dermatitidis D40; assay: as above; type: cell-based; conditions: 10^6 CFU/ml, 40-60 hours at 28° C.
# Description: as §1, §7
# C. albicans A9540 = assay: as above; type: cell-based; conditions: Candida albicans, 10^6 CFU/ml, 40-60 hours at 28° C.
# Description: as §1, §7
# C. neoformans IAM4514 = assay: as above; type: cell-based; conditions: Cryptococcus neoformans, 10^6 CFU/ml, 40-60 hours at 28° C.
# Description: as §1, §7
# Candida albicans IAM4888 = assay: as above; type: cell-based; conditions: 10^6 CFU/ml, 40-60 hours at 28° C.
# Description: as §1, §7
# [12] = test system: Cryptococcus neoformans D49; assay: as above; type: cell-based; conditions: 10^6 CFU/ml, 40-60 hours at 28° C.
# Description: as §1, §7
# [13] = test system: Fusarium moniliforme A2284; assay: as above; type: cell-based; conditions: Fusarium verticillioides, 10^6 CFU/ml, 40-60 hours at 28° C.
# Description: as §1, §7
# Mucor spinosus IF05317 = assay: as above; type: cell-based; conditions: 10^6 CFU/ml, 40-60 hours at 28° C.
# Description: as §1, §7
# [14] = test system: Petriellidium boydii IF08078; assay: as above; type: cell-based; conditions: Scedosporium boydii, 10^6 CFU/ml, 40-60 hours at 28° C.
# Description: as §1, §7
# [15] = test system: Sporothrix schenckii IF08158; assay: as above; type: cell-based; conditions: 10^6 CFU/ml, 40-60 hours at 28° C.
# Description: as §1, §7
# T. mentagrophytes #4329 = assay: as above; type: cell-based; conditions: Trichophyton mentagrophytes, 10^6 CFU/ml, 40-60 hours at 28° C.
# Description: as §1, §7
# [16] = test system: Trichophyton mentagrophytes D155; assay: as above; type: cell-based; conditions: 10^6 CFU/ml, 40-60 hours at 28° C.
# Description: as §1, §7
# [17] = test system: Candida albicans ATCC 38247 (polyene-R); assay: In vitro antifungal activity, serial agar dilution, yeast morphology agar (Table 4b); type: cell-based; conditions: ATCC38247, 60 h
# Description: as §1, §2, §3, §4, §5
# Solubility = type: physicochemical
SMILES,MIC [1] [µg/mL],MIC [2] [µg/mL],MIC (Candida albicans A9540) [µg/mL],MIC [3] [µg/mL],MIC [4] [µg/mL],MIC [5] [µg/mL],MIC [6] [µg/mL],MIC [7] [µg/mL],MIC [8] [µg/mL],MIC [9] [µg/mL],MIC (A. fumigatus IAM2034) [µg/mL],MIC [10] [µg/mL],MIC [11] [µg/mL],MIC (C. albicans A9540) [µg/mL],MIC (C. neoformans IAM4514) [µg/mL],MIC (Candida albicans IAM4888) [µg/mL],MIC [12] [µg/mL],MIC [13] [µg/mL],MIC (Mucor spinosus IF05317) [µg/mL],MIC [14] [µg/mL],other results
COc1cc(O)c2c(c1)C(=O)c1c(cc3c(c1O)-c1c(cc(C)c(C(=O)N[C@H](CO)C(=O)O)c1O)[C@H](O[C@@H]1O[C@H](C)[C@H](N(C)C)[C@H](O[C@@H]4O[C@H](CO)[C@@H](O)[C@H](O)[C@H]4O)[C@H]1O)[C@H]3O)C2=O [N-Methyl Pradimicin FL],6.3,6.3,6.3,6.3,12.5,12.5,6.3,6.3,3.1,6.3,–,–,–,–,–,–,–,–,–,–,–
COc1cc(O)c2c(c1)C(=O)c1c(cc3c(c1O)-c1c(cc(C)c(C(=O)N[C@H](C)C(=O)O)c1O)[C@H](O[C@@H]1O[C@H](C)[C@H](N(C)C)[C@H](O[C@@H]4O[C@H](CO)[C@@H](O)[C@H](O)[C@H]4O)[C@H]1O)[C@H]3O)C2=O [N-Methyl Pradimicin L],–,–,–,–,–,–,–,–,–,–,6.3,6.3,6.3,12.5,6.3,12.5,6.3,12.5,> 100,25,MIC [15]: 1.6 µg/mL; MIC (T. mentagrophytes #4329): 25 µg/mL; MIC [16]: 25 µg/mL
"CN[C@@H]1[C@H](O[C@@H]2OC[C@@H](O)[C@H](O)[C@H]2O)[C@@H](O)[C@H](O[C@H]2c3cc(C)c(C(=O)N[C@H](C)C(=O)O)c(O)c3-c3c(cc4c(c3O)C(=O)c3cc(OC)cc(O)c3C4=O)[C@@H]2O)O[C@@H]1C [Pradimicin A, pradimicin A, reference compound]",1.6,12.5,12.5,6.3,12.5,> 100,1.6,1.6,6.3,3.1,3.1,1.6,6.3,100,1.6,6.3,1.6,6.3,> 100,6.3,MIC [15]: 1.6 µg/mL; MIC (T. mentagrophytes #4329): 6.3 µg/mL; MIC [16]: 1.6 µg/mL; MIC [17]: 6.3 µg/mL
"CN[C@@H]1[C@H](O[C@@H]2O[C@H](CO)[C@@H](O)[C@H](O)[C@H]2O)[C@@H](O)[C@H](O[C@H]2c3cc(C)c(C(=O)N[C@H](CO)C(=O)O)c(O)c3-c3c(cc4c(c3O)C(=O)c3cc(OC)cc(O)c3C4=O)[C@@H]2O)O[C@@H]1C [Pradimicin FL, pradimicin FL]",3.1,6.3,6.3,6.3,6.3,6.3,3.1,1.6,3.1,3.1,–,–,–,–,–,–,–,–,–,–,MIC [17]: 3.1 µg/mL
"CN[C@@H]1[C@H](O[C@@H]2O[C@H](CO)[C@@H](O)[C@H](O)[C@H]2O)[C@@H](O)[C@H](O[C@H]2c3cc(C)c(C(=O)N[C@H](C)C(=O)O)c(O)c3-c3c(cc4c(c3O)C(=O)c3cc(OC)cc(O)c3C4=O)[C@@H]2O)O[C@@H]1C [Pradimicin L, pradimicin L]",3.1,100,25,6.3,> 100,100,1.6,0.8,6.3,3.1,3.1,3.1,3.1,12.5,0.8,6.3,0.8,6.3,> 100,25,"MIC [15]: 0.8 µg/mL; MIC (T. mentagrophytes #4329): 12.5 µg/mL; MIC [16]: 6.3 µg/mL; MIC [17]: 3.1 µg/mL; Solubility (Solubility; dimethyl sulfoxide, dimethyl-formamide, acidic or alkaline water): Soluble in dimethyl sulfoxide, dimethyl-formamide, and acidic or alkaline water; Solubility (Solubility; ethanol, methanol, and water): slightly soluble in ethanol, methanol, and water"
